# Laboratory results: patent publication US6583118B1, “Chondroprotective agents” (Kureha Chemical Industry Co., Ltd., priority 1993, dated 2003)
# Tests used:
# [1] = Acute toxicity, mouse LD50; assay type: in vivo; details: in vivo, oral administration
# [2] = test system: chondrocyte culture (derived from cartilage of rabbit shoulder and knee joints); experiment: Effect of test compounds on proteoglycan depletion in chondrocyte culture (PMA-induced, GAG content); assay type: cell-based, rabbit (New Zealand white Rabbits); details: for Relative amount of GAG: control without PMA = 100
# Description: The cartilages were sterilely extracted from the shoulder and knee joints of rabbits (New Zealand white Rabbits) (body weight of 1 to 1.5 kg). The cartilages were thoroughly washed with PBS (−) (free of Ca^2+, Mg^2+), Hanks' solution and 0.1% EDTA-PBS (−), and then cut into small segments (1 mm×1 mm×1 mm). After PBS (−) containing 0.1% EDTA was added, the segments were allowed to stand in an incubator of 37° C. for 30 minutes. Then, the segments were treated with a trypsin solution (0.25%) at 37° C. for one hour to remove the connective tissue adhered to the cartilage. After the supernatant had been removed, the cartilages were treated for about 2 to 2.5 hours in a Ham F-12 medium containing 10% fetal bovine serum (FBS) and 0.2% collagenase. Then, the collagenase solution was centrifuged (1500 r.p.m.), and the residual chondrocytes were washed twice with a Ham F-12 medium (chondrocyte culture medium) containing 10% FBS. Finally, the resulting suspension was adjusted so that the chondrocytes were suspended in the concentration of 3×10^5 cells/ml in the chondrocyte culture medium. The chondrocytes were seeded in an amount of 1 ml/well on 24-well plates. The chondrocytes became confluent after 4 days. The experiment were performed within two weeks after reaching the confluent stage.
# The chondrocyte culture medium which had been used for cultivating the chondrocytes was removed from each well and 800 μl of fresh serum-free S-Clone medium containing 0.1% human serum albumin was added. Further, 100 μl of S-Clone medium containing the compounds to be tested (containing the compound in the concentration of 10 fold the final concentration; DMSO concentration=2.5%) was added. The chondrocytes were cultured in the presence of carbon dioxide (5%) and air (95%) for 2 hours. Then, the proteoglycan depleting agent, PMA (phorbol myristate acetate) (final concentration=0.1 μg/ml) was added into the culture medium of the chondrocytes.
# Proteoglycan depletion was determined by the measurement of the glycosaminoglycan (major constituent of proteoglycan, hereinafter referred to as GAG) content following digestion of the chondrocyte matrix with papain.
# After 2 days, the supernatant of the chondrocyte culture was removed. Then, 1 ml of 0.03 […] papaine solution was added to the remaining chondrocyte matrix layer and a reaction was performed at 65° C. for 1 hour to liberate the GAG from the matrix layer. The content of the GAG in the treated papaine solution was determined by the 1,9-dimethylmethylene blue method (refer to R. W. Farndale, Biochim. Biophys. Acta., Vol. 883, pp. 173 to 177, 1986). The GAG content in the chondrocyte matrix of the control test wherein the proteoglycan depleting agent was not added was shown as “100”, and the relative amount of the GAG of each experiment except the control test was calculated by following formula:
# GAG relative amount (%)=(B/A)×100
# wherein A represents the GAG content of the control tests wherein the proteoglycan depleting agent was not added, and B represents the GAG content wherein the proteoglycan depleting agents were added alone or the GAG content wherein the proteoglycan depleting agents and the compounds to be tested were added.
# The GAG content is the value of the mean value ± standard error (n=3 to 6). For each of the compounds to be tested, the control test and the proteoglycan depleting test wherein the proteoglycan depleting agent was added were carried out and the results thereof are also shown. The significance was determined by Student's t-test with respect to the proteoglycan depleting test wherein the proteoglycan depleting agent was added.
# BALB/c mice = experiment: Observation for a week after oral administration to BALB/c mice; assay type: in vivo, mouse; details: 100 mg/kg
# Description: The same results were obtained where hesperidin, acacetin, diosmetin, apigenin, luteolin, or kaempferol was administered.
# Mouse = experiment: Acute toxicity, mouse LD50; assay type: in vivo; details: intravenous injection
# [3] = PMA 0.1 μg/ml + test compound 100 μM, chondrocyte matrix after 2 days, mean ± standard error (n=3 to 6)
# [4] = PMA 0.1 μg/ml + test compound 100 μM
# [5] = BALB/c mice (female, seven weeks old), oral
SMILES,"GAG content [2, 3] [µg/mL]","Relative amount of GAG [2, 4]","abnormalities observed for a week after administration (BALB/c mice; mouse, in vivo, po)",further results
"O=c1c(O)c(-c2ccc(O)c(O)c2)oc2cc(O)cc(O)c12 [No. 22, Quercetin]",31.0 ± 0.6,(55.3) %,,LD50 [1]: 160 mg/kg
"O=c1cc(-c2ccc(O)c(O)c2)oc2cc(O)cc(O)c12 [No. 8, Luteolin]",28.6 ± 0.5,(52.2) %,no abnormalities were observed,
"O=c1c(O)c(-c2ccc(O)cc2)oc2cc(O)cc(O)c12 [No. 17, Kaempferol]",30.5 ± 0.3,(55.7) %,no abnormalities were observed,
"COc1ccc2c(c1)c(CC(=O)O)c(C)n2C(=O)c1ccc(Cl)cc1 [indometacin, Indometacin, reference compound]",,,,"Relative amount of GAG ([2]; PMA 0.1 μg/ml + indometacin 10 μM): (47.1) %; GAG content ([2]; PMA 0.1 μg/ml + indometacin 10 μM, mean ± standard error): 13.2 ± 0.6 µg/mL; Relative amount of GAG ([2]; PMA 0.1 μg/ml + indometacin 33 μM): (41.8) %; GAG content ([2]; PMA 0.1 μg/ml + indometacin 33 μM, mean ± standard error): 11.7 ± 0.8 µg/mL"
"COc1ccc(-c2cc(=O)c3c(O)cc(O)cc3o2)cc1 [No. 11, Acacetin]",24.2 ± 0.3,(44.8) %,no abnormalities were observed,
"O=c1c(O)c(-c2ccc(O)c(O)c2)oc2cc(O)ccc12 [No. 16, Fisetin]",30.1 ± 0.9,(55.7) %,,LD50 (Mouse): 180 mg/kg
"O=c1cc(-c2ccccc2)oc2cc(O)c(O)c(O)c12 [No. 15, Baicalein]",7.67 ± 0.5,(68.3) %,,
"COc1ccc([C@@H]2CC(=O)c3c(O)cc(O)cc3O2)cc1O [No. 41, Hesperetin]",28.7 ± 0.4,(48.6) %,,abnormalities observed for a week after administration (BALB/c mice; [5]): no abnormalities were observed
"COc1ccc([C@@H]2CC(=O)c3c(O)cc(O[C@@H]4O[C@H](CO[C@@H]5O[C@@H](C)[C@H](O)[C@@H](O)[C@H]5O)[C@@H](O)[C@H](O)[C@H]4O)cc3O2)cc1O [No. 42, Hesperidin]",24.0 ± 0.6,(42.8) %,,abnormalities observed for a week after administration (BALB/c mice; [5]): no abnormalities were observed
"COc1ccc(-c2cc(=O)c3c(O)cc(O)cc3o2)cc1O [No. 13, Diosmetin]",27.1 ± 0.7,(49.0) %,no abnormalities were observed,
"O=c1cc(-c2ccc(O)cc2)oc2cc(O)cc(O)c12 [No. 5, Apigenin]",33.3 ± 0.7,(60.9) %,no abnormalities were observed,
"COc1ccc(-c2cc(=O)c3c(O)cc(O[C@@H]4O[C@H](CO[C@@H]5O[C@@H](C)[C@H](O)[C@@H](O)[C@H]5O)[C@@H](O)[C@H](O)[C@H]4O)cc3o2)cc1 [No. 12, Linarin]",19.8 ± 0.7,(35.8) %,,
